Data as given in patent US9255295B2, “Method for evaluating the sensitizing potential of a test compound” (IMMUNOSEARCH, priority 2010, dated 2016).
Like-named read-outs stand apart in the source and are kept apart here.

Columns and labels:
[1] = tested on: ARE gene family (AKR1B10, AKR1C1, AKR1C2, CYP1B1, FTH1P, FTL, G6PD, GCLM, NQO2, SLC7A11, TXNRD1, UGT1A1, UGT1A9, YWHAZ, CD36, CYP1A1, GCLC, HMOX1, NQO1, PSME2 …)
[2] = tested on: EPISKIN model
Description: “Sensitizing power” means the ability of a given compound to induce a sensitization reaction according to the concentration of said compound. Sensitizing power is dependent on the quantity of substance necessary to induce sensitization. Thus, the lower the sensitizing quantity necessary to induce a sensitizing response, the stronger the sensitizer is, and vice versa, the higher the sensitizing quantity necessary to induce a sensitizing response, the weaker the sensitizer is.
Thus, steps 1) and 2) will be done for each of the dilutions.

Nc1ccccc1O [2-aminophenol]
S100A8 expression compared to control ([1]; 1%): 1.2
S100A8 grade (NUMBER OF GENES) ([1]; 1%): 0 (if this expression is lower, the grade is 0)
SLC7A11 expression compared to control ([1]; 1%): 3.2
SLC7A11 grade (NUMBER OF GENES) ([1]; 1%): 1 (If the expression is greater than 1.3 compared to the control, a grade of 11s given)
TOTAL ARE (NUMBER OF GENES) ([1]; 1%): 10
TXNRD1 expression compared to control ([1]; 1%): 4.8
TXNRD1 grade (NUMBER OF GENES) ([1]; 1%): 1 (If the expression is greater than 1.3 compared to the control, a grade of 11s given)
UGT1A1 expression compared to control ([1]; 1%): 1.6
UGT1A1 grade (NUMBER OF GENES) ([1]; 1%): 1 (If the expression is greater than 1.3 compared to the control, a grade of 11s given)
UGT1A9 expression compared to control ([1]; 1%): 1.0
UGT1A9 grade (NUMBER OF GENES) ([1]; 1%): 0 (if this expression is lower, the grade is 0)
AHR expression compared to control ([1]; 10%): 0.7
AHR grade (NUMBER OF GENES) ([1]; 10%): 0 (if this expression is lower, the grade is 0)
AKR1B10 expression compared to control ([1]; 10%): 1.1
AKR1B10 grade (NUMBER OF GENES) ([1]; 10%): 0 (if this expression is lower, the grade is 0)
AKR1C1 expression compared to control ([1]; 10%): 9.3
AKR1C1 grade (NUMBER OF GENES) ([1]; 10%): 1 (If the expression is greater than 1.3 compared to the control, a grade of 11s given)
AKR1C2 expression compared to control ([1]; 10%): 3.4
AKR1C2 grade (NUMBER OF GENES) ([1]; 10%): 1 (If the expression is greater than 1.3 compared to the control, a grade of 11s given)
ARE >1.3 (NUMBER OF GENES) ([1]; 10%): 14
CD36 expression compared to control ([1]; 10%): 0.5
CD36 grade (NUMBER OF GENES) ([1]; 10%): 0 (if this expression is lower, the grade is 0)
CYP1A1 expression compared to control ([1]; 10%): 122.0
CYP1A1 grade (NUMBER OF GENES) ([1]; 10%): 1 (If the expression is greater than 1.3 compared to the control, a grade of 11s given)
CYP1B1 expression compared to control ([1]; 10%): 45.1
CYP1B1 grade (NUMBER OF GENES) ([1]; 10%): 1 (If the expression is greater than 1.3 compared to the control, a grade of 11s given)
FTH1P expression compared to control ([1]; 10%): 1.5
FTH1P grade (NUMBER OF GENES) ([1]; 10%): 1 (If the expression is greater than 1.3 compared to the control, a grade of 11s given)
FTL expression compared to control ([1]; 10%): 2.5
FTL grade (NUMBER OF GENES) ([1]; 10%): 1 (If the expression is greater than 1.3 compared to the control, a grade of 11s given)
GCLC expression compared to control ([1]; 10%): 2.3
GCLC grade (NUMBER OF GENES) ([1]; 10%): 1 (If the expression is greater than 1.3 compared to the control, a grade of 11s given)
GCLM expression compared to control ([1]; 10%): 4.6
GCLM grade (NUMBER OF GENES) ([1]; 10%): 1 (If the expression is greater than 1.3 compared to the control, a grade of 11s given)
HMOX1 expression compared to control ([1]; 10%): 1.7
HMOX1 grade (NUMBER OF GENES) ([1]; 10%): 1 (If the expression is greater than 1.3 compared to the control, a grade of 11s given)
NQO1 expression compared to control ([1]; 10%): 2.5
NQO1 grade (NUMBER OF GENES) ([1]; 10%): 1 (If the expression is greater than 1.3 compared to the control, a grade of 11s given)
NQO2 expression compared to control ([1]; 10%): 1.4
NQO2 grade (NUMBER OF GENES) ([1]; 10%): 1 (If the expression is greater than 1.3 compared to the control, a grade of 11s given)
S100A8 expression compared to control ([1]; 10%): 1.2
S100A8 grade (NUMBER OF GENES) ([1]; 10%): 0 (if this expression is lower, the grade is 0)
SLC7A11 expression compared to control ([1]; 10%): 3.8
SLC7A11 grade (NUMBER OF GENES) ([1]; 10%): 1 (If the expression is greater than 1.3 compared to the control, a grade of 11s given)
TOTAL ARE (NUMBER OF GENES) ([1]; 10%): 14
TXNRD1 expression compared to control ([1]; 10%): 7.6
TXNRD1 grade (NUMBER OF GENES) ([1]; 10%): 1 (If the expression is greater than 1.3 compared to the control, a grade of 11s given)
UGT1A1 expression compared to control ([1]; 10%): 1.8
UGT1A1 grade (NUMBER OF GENES) ([1]; 10%): 1 (If the expression is greater than 1.3 compared to the control, a grade of 11s given)
UGT1A9 expression compared to control ([1]; 10%): 1.2
UGT1A9 grade (NUMBER OF GENES) ([1]; 10%): 0 (if this expression is lower, the grade is 0)
AHR expression compared to control ([1]; 50%): 1.3
AHR grade (NUMBER OF GENES) ([1]; 50%): 0 (if this expression is lower, the grade is 0)
AKR1B10 expression compared to control ([1]; 50%): 1.3
AKR1B10 grade (NUMBER OF GENES) ([1]; 50%): 1 (If the expression is greater than 1.3 compared to the control, a grade of 11s given)
AKR1C1 expression compared to control ([1]; 50%): 8.6
AKR1C1 grade (NUMBER OF GENES) ([1]; 50%): 1 (If the expression is greater than 1.3 compared to the control, a grade of 11s given)
AKR1C2 expression compared to control ([1]; 50%): 3.3
AKR1C2 grade (NUMBER OF GENES) ([1]; 50%): 1 (If the expression is greater than 1.3 compared to the control, a grade of 11s given)
ARE >1.3 (NUMBER OF GENES) ([1]; 50%): 14
CD36 expression compared to control ([1]; 50%): 0.7
CD36 grade (NUMBER OF GENES) ([1]; 50%): 0 (if this expression is lower, the grade is 0)
CYP1A1 expression compared to control ([1]; 50%): 66.5
CYP1A1 grade (NUMBER OF GENES) ([1]; 50%): 1 (If the expression is greater than 1.3 compared to the control, a grade of 11s given)
CYP1B1 expression compared to control ([1]; 50%): 37.7
CYP1B1 grade (NUMBER OF GENES) ([1]; 50%): 1 (If the expression is greater than 1.3 compared to the control, a grade of 11s given)
FTH1P expression compared to control ([1]; 50%): 2.0
FTH1P grade (NUMBER OF GENES) ([1]; 50%): 1 (If the expression is greater than 1.3 compared to the control, a grade of 11s given)
FTL expression compared to control ([1]; 50%): 3.5
FTL grade (NUMBER OF GENES) ([1]; 50%): 1 (If the expression is greater than 1.3 compared to the control, a grade of 11s given)
GCLC expression compared to control ([1]; 50%): 4.0
GCLC grade (NUMBER OF GENES) ([1]; 50%): 1 (If the expression is greater than 1.3 compared to the control, a grade of 11s given)
GCLM expression compared to control ([1]; 50%): 4.7
GCLM grade (NUMBER OF GENES) ([1]; 50%): 1 (If the expression is greater than 1.3 compared to the control, a grade of 11s given)
HMOX1 expression compared to control ([1]; 50%): 1.9
HMOX1 grade (NUMBER OF GENES) ([1]; 50%): 1 (If the expression is greater than 1.3 compared to the control, a grade of 11s given)
NQO1 expression compared to control ([1]; 50%): 3.3
NQO1 grade (NUMBER OF GENES) ([1]; 50%): 1 (If the expression is greater than 1.3 compared to the control, a grade of 11s given)
NQO2 expression compared to control ([1]; 50%): 1.3
NQO2 grade (NUMBER OF GENES) ([1]; 50%): 0 (if this expression is lower, the grade is 0)
S100A8 expression compared to control ([1]; 50%): 1.3
S100A8 grade (NUMBER OF GENES) ([1]; 50%): 1 (If the expression is greater than 1.3 compared to the control, a grade of 11s given)
SLC7A11 expression compared to control ([1]; 50%): 6.0
SLC7A11 grade (NUMBER OF GENES) ([1]; 50%): 1 (If the expression is greater than 1.3 compared to the control, a grade of 11s given)
TOTAL ARE (NUMBER OF GENES) ([1]; 50%): 14
TXNRD1 expression compared to control ([1]; 50%): 6.4
TXNRD1 grade (NUMBER OF GENES) ([1]; 50%): 1 (If the expression is greater than 1.3 compared to the control, a grade of 11s given)
UGT1A1 expression compared to control ([1]; 50%): 2.1
UGT1A1 grade (NUMBER OF GENES) ([1]; 50%): 1 (If the expression is greater than 1.3 compared to the control, a grade of 11s given)
UGT1A9 expression compared to control ([1]; 50%): 0.4
UGT1A9 grade (NUMBER OF GENES) ([1]; 50%): 0 (if this expression is lower, the grade is 0)
sensitizing power (class) [2]: STRONG
